Measured values published in US10799456B2, “Multiple drug lipid nanoparticle composition and related methods for extended drug levels in blood and lymph tissue” (priority 2015, dated 2020).

Columns and labels:
[1] = Tables 20 and 21; cited from earlier work
[2] = Drug incorporation efficiency into lipid-drug nanoparticles (dialysis); type: physicochemical; details: for Incorporation efficiency (%): DSPC:DSPE-mPEG2000 8:2
Description: J Acquir Immune Defic Syndr. […] Journal of pharmaceutical sciences. […] The AAPS journal. […] Residual solvent was removed overnight by vacuum desiccation. The dried lipid-drug film was then rehydrated with 0.9% NaCl containing 20 mM sodium bicarbonate (pH 7.4). The lipid-drug samples were allowed to hydrate at 60° C. for 2 h. Then samples were sonicated (laboratory scale) or homogenized (preclinical scale) to achieve a homogenous suspension.
The incorporation efficiency was calculated as the ratio of the amount of incorporated drug over the total amount of drug loaded multiplied by 100%.

[3] = DPH fluorescence anisotropy, lipid phase transition temperature; type: physicochemical
Description: To evaluate the change in membrane fluidity due to drug insertion into the lipid membrane, 0.1% 1,6-diphenyl-1,3,5-hexatriene (DPH) was used as an intra-membrane probe.^18,20 Briefly, to incorporate DPH into the lipid membrane, 2 μL of 2 mM DPH in tetrahydrofuran was added to the lipid nanoparticle suspension with or without drug. The final preparation was incubated at 60° C. (above the 55° C. DSPC phase transition temperature) for 30 min, then slowly cooled to room temperature over 15 min. […] A water-jacketed cuvette holder connected to a circulating water bath (PolyScience, model 1162, Niles, Ill.) was used to control the temperature within the cuvette, which was measured by a digital thermometer. The cuvette was allowed to equilibrate for 10 min before taking each temperature reading. The fluorescence intensities, both parallel and perpendicular to the emission light, were measured continuously with a F-4500 fluorescence spectrometer (Hitachi, Minato-ku, Tokyo, Japan) set at kex/em=360/430 nm; both excitation and emission slits were 5 nm. Fluorescence anisotropy response, r, was calculated by the equation: […]
The fluorescence anisotropy response versus temperature curve was generated by non-linear regression using SigmaPlot software (11.0 version, Systat Software, Inc., San Jose, Calif.). […]

[4] = Octanol-buffer distribution coefficient (shake-flask); type: physicochemical; details: room temperature
Description: The octanol-buffer drug distribution coefficient at room temperature was determined by a small-scale, shake-flask method described by Dittert L W, et al. Phase Solubility Technique in Studying the Formation of Complex Salts of Triamterene. Journal of pharmaceutical sciences. […] Briefly, phosphate-buffered saline (PBS) at pH 3, 5, and 7.4 was used as the aqueous phase. […] The mixture was centrifuged at 14,000 rpm (18,078 g) (Beckman Coulter™ Microfuge® 18 centrifuge, Beckman Coulter Inc., Brea, Calif.) to separate octanol and the aqueous phase. The drug concentration in the two phases was determined with high-performance liquid chromatography tandem mass spectrometry (HPLC/MS/MS). The distribution coefficient was calculated as the ratio of the drug concentration in the octanol phase to the drug concentration in the aqueous phase. Triplicate samples were used at each pH.

[5] = % Drug association to particles by assembly method; type: physicochemical
Text: Select one or two drugs hydrophilic and water soluble (Class 2) drugs listed in Table 19 (for example, tenofovir and/or emtricitabine and/or lamivudine). • 3. Select the excipient combination (for example, 9 parts DSPC and 1 part PEG-DSPE). • 4. Prepare a single-phase miscible solvent that enables full solubilization of the chosen water-insoluble Class 1 drugs and water soluble Class 2 drugs plus the excipients from step 3. Examples include CHCl3:Methanol:Water (65:35:4); CHCl3:Ethanol:Water (65:35:4); CHCl3:Propanol:Water (65:35:4); and CHCl3:Hexanol:Water (65:35:4). • 5. The components in Steps 1, 2 and 3 are solubilized with the miscible solvent in step 4. • 6. The drugs (steps 1 and 2) as well as excipients (step 3) and the miscible solvent (step 4) are dried under reduced pressure with assistance of a combination of heat, reduced pressure and/or aerosolization to provide for uniformity and efficiency of drying. • 7. The dehydrated composition is heated above gel-to-liquid phase transition temperature of the excipient mixture (e.g., 50° C.). • 8. A buffered saline solution is prepared and the temperature is equilibrated to the same temperature as dehydrated composition. • 9. The buffered saline solution and dehydrated composition are gradually combined and maintained at the defined (e.g., 50° C.) for 3 hr. • 10. The resulting hydrated multi-drug lipid nanoparticles are size-reduced by sheering or forcing through small orifice or pressurized filter apparatus while maintaining at the defined temperature (in liquid phase of lipidic excipients).

[6] = Particle size by photon correlation spectroscopy; type: physicochemical
Description: The mean particle size of lipid-drug nanoparticles and liposome control was determined by photon correlation spectroscopy (PCS) using a NICOMP™ 380ZLS instrument (NICOMP Particle Sizing Systems, Santa Barbara, Calif.). […] Samples were diluted with the same buffer to an identical final volume to analyze concentration effects. The light scattering data were analyzed based on intensity-weight NICOMP size distribution and expressed as a mean±SD.
Briefly, lipids and protease inhibitors were dissolved in chloroform:ethanol (3:1 v/v) and PMPA was added from a stock solution of 30 mg/ml in aqueous 150 mM NaHCO3. Solvent was removed by rotary evaporation and vacuum desiccation. The dry film was rehydrated to 200 mM lipid in 0.4% NaCl with 20 mM NaHCO3 buffer at 60° C. Particle size was reduced at 60° C. by bath sonication (laboratory scale) or high-pressure homogenization using an Emulsiflex-05 (Avestin, Ottawa, Canada) (clinical scale). LNPs were maintained at 60° C. to anneal for 30 min prior to cooling and stored at 4° C. Particle size was determined by photon correlation spectroscopy using a NICOMP 380 ZLS (Particle Sizing Systems, Santa Barbara, Calif.).

Darunavir [Darunavir (DRV)]
Hydrophobicity (Log P) [1]: 1.8 | Incorporation efficiency (%) ([2]; lipid:drug 5:1 mol/mol): 88.1 ± 3.8% | Incorporation efficiency (%) ([2]; lipid:drug 5:1 mol/mol, listed as DRV): 88.1% | Incorporation efficiency (%) ([2]; lipid:drug 8:1 mol/mol): 94.4 ± 2.8% | Incorporation efficiency (%) ([2]; lipid:drug 8:1 mol/mol, listed as DRV): 94.4% | Incorporation efficiency (%) ([2]; lipid:drug 20:1 mol/mol): 96.6 ± 4.8% | Incorporation efficiency (%) ([2]; lipid:drug 20:1 mol/mol, listed as DRV): 96.6% | drug incorporation efficiency ([2]; prepared at 0.5 mM lipid): 58% | drug incorporation efficiency ([2]; prepared at 5 mM lipid): 95% | reduction of TC ([3]; lipid-to-drug 8:1, vs control LNPs): 1.6 °C | phase transition temperature (TC) ([3]; lipid-to-drug molar ratio 8:1): 53.3 °C | Log D (measured) ([4]; pH 3, octanol/PBS): 2.98 | Log D (measured) ([4]; pH 5, octanol/PBS): 2.80 | Log D (measured) ([4]; pH 7.4, octanol/PBS): 2.84 | % Drug Association to Particles, LNPs from mixture of dual solvent method [5]: 97% | Particle size (nm) ([6]; lipid:drug 5:1 mol/mol): 33.6 ± 3.1 nm | Particle size (nm) ([6]; lipid:drug 8:1 mol/mol): 35.6 ± 3.9 nm | Particle size (nm) ([6]; lipid:drug 20:1 mol/mol): 35.6 ± 3.7 nm
